Laboratory results: PMC12655637, “Design, Synthesis, and Mechanistic Study of Novel Ciprofloxacin/Thiazole Chalcone Hybrids as Potential Anticancer Agents” (Pharmaceuticals, 2025)
Like-named read-outs stand apart in the source and are kept apart here.

What was measured:
Experiment in all cases: NCI-60 screening, one-dose (10 µM) and five-dose, SRB
SW-620 = assay type: cell-based, human; settings: Homo sapiens; 10 μM; SW-620, Colon Cancer; read-out: Growth percentage
SK-MEL-2 = assay type: cell-based, human; settings: Homo sapiens; 10 μM; SK-MEL-2, Melanoma; read-out: Growth percentage
MDA-MB-468 = assay type: cell-based, human; settings: Homo sapiens, MDA-MB-468, 10 μM; MDA-MB-468, Breast Cancer; read-out: Growth percentage
Excerpt: Control cells Test cells FLD
available usually at NCI library.
An aliquot of frozen drug concentrate is […]

DU-145 = assay type: cell-based, human; settings: Homo sapiens; 10 μM; DU-145, Prostate Cancer; read-out: Growth percentage
EKVX = assay type: cell-based, human; settings: Homo sapiens, 10 μM, Non-Small-Cell Lung Cancer, read-out: Growth percentage
NCI-H226 = assay type: cell-based, human; settings: Homo sapiens; 10 μM; NCI-H226, Non-Small-Cell Lung Cancer; read-out: Growth percentage
KM12 = assay type: cell-based, human; settings: Homo sapiens, KM12, 10 μM; KM12, Colon Cancer; read-out: Growth percentage
CAKI-1 = assay type: cell-based; settings: Homo sapiens; 10 μM; CAKI-1, Renal Cancer; read-out: Growth percentage
HOP-92 = assay type: cell-based, human; settings: Homo sapiens; 10 μM; HOP-92, Non-Small-Cell Lung Cancer; read-out: Growth percentage
NCI-H23 = assay type: cell-based, human; settings: Homo sapiens; 10 μM; NCI-H23, Non-Small-Cell Lung Cancer; read-out: Growth percentage
K-562 = assay type: cell-based, human; settings: Homo sapiens, K562, 10 μM; K-562, Leukemia; read-out: Growth percentage
HS 578T = assay type: cell-based, human; settings: Homo sapiens, 10 μM, Breast Cancer, read-out: Growth percentage
HCC-2998 = assay type: cell-based, human; settings: Homo sapiens; 10 μM; HCC-2998, Colon Cancer; read-out: Growth percentage
SR = assay type: cell-based, human; settings: 10 μM, Leukemia
RPMI-8226 = assay type: cell-based, human; settings: Homo sapiens, RPMI-8226, 10 μM; RPMI-8226, Leukemia; read-out: Growth percentage
NCI-H460 = assay type: cell-based, human; settings: Homo sapiens, NCI-H460, 10 μM; NCI-H460, Non-Small-Cell Lung Cancer; read-out: Growth percentage
TK-10 = assay type: cell-based, human; settings: Homo sapiens; 10 μM; TK-10, Renal Cancer; read-out: Growth percentage
UACC-257 = assay type: cell-based, human; settings: Homo sapiens; 10 μM; UACC-257, Melanoma; read-out: Growth percentage
SN12C = assay type: cell-based, human; settings: Homo sapiens, 10 μM, Renal Cancer, read-out: Growth percentage
CCRF-CEM = assay type: cell-based, human; settings: Homo sapiens, 10 μM, Leukemia, read-out: Growth percentage
ACHN = assay type: cell-based, human; settings: Homo sapiens, 10 μM, Renal Cancer, read-out: Growth percentage
SF-295 = assay type: cell-based, human; settings: Homo sapiens; 10 μM; SF-295, CNS Cancer; read-out: Growth percentage
RXF 393 = assay type: cell-based; settings: Homo sapiens
MDA-MB231/ATCC = assay type: cell-based; settings: 10 μM; MDA-MB231/ATCC, Breast Cancer
786−0 = assay type: cell-based, human; settings: Homo sapiens; 10 μM; 786−0, Renal Cancer; read-out: Growth percentage
COLO 205 = assay type: cell-based, human; settings: Homo sapiens; 10 μM; COLO 205, Colon Cancer; read-out: Growth percentage
HCT-116 = assay type: cell-based, human; settings: Homo sapiens, HCT-116, 10 μM; HCT-116, Colon Cancer; read-out: Growth percentage
SF-268 = assay type: cell-based, human; settings: Homo sapiens; 10 μM; SF-268, CNS Cancer; read-out: Growth percentage
OVCAR-4 = assay type: cell-based, human; settings: Homo sapiens; 10 μM; OVCAR-4, Ovarian Cancer; read-out: Growth percentage
MCF7 = assay type: cell-based, human; settings: Homo sapiens, MCF7, 10 μM; MCF7, Breast Cancer; read-out: Growth percentage
[1] = 10 μM, RXF 393, Renal Cancer, read-out: Growth percentage

SMILES | activity at 10 µM (SW-620) | activity at 10 µM (SK-MEL-2) | activity at 10 µM (MDA-MB-468) | activity at 10 µM (DU-145) | activity at 10 µM (EKVX) | activity at 10 µM (NCI-H226) | activity at 10 µM (KM12) | activity at 10 µM (CAKI-1) | activity at 10 µM (HOP-92) | activity at 10 µM (NCI-H23) | activity at 10 µM (K-562) | activity at 10 µM (HS 578T) | activity at 10 µM (HCC-2998) | Growth percentage (SR) | activity at 10 µM (RPMI-8226) | activity at 10 µM (NCI-H460) | activity at 10 µM (TK-10) | activity at 10 µM (UACC-257) | activity at 10 µM (SN12C) | activity at 10 µM (CCRF-CEM) | other results
Cc1nc(SCC(=O)N2CCN(c3cc4c(cc3F)c(=O)c(C(=O)O)cn4C3CC3)CC2)sc1C(=O)/C=C/c1ccc(F)cc1 [Compound 4e, (E)-1-Cyclopropyl-6-fluoro-7-(4-(2-((5-(3-(4-fluorophenyl)acryloyl)-4-methylthiazol-2-yl)thio)acetyl)piperazin-1-yl)-4-oxo-1,4-dihydroquinoline-3-carboxylic Acid] | 126% | 104% | 106% | 105% | 108% | 98.3% | 97.3% | 97.4% | 98% | 101% | 98.2% | 105% | 107% | 55.6% | 29.1% | 108% | 103% | 106% | 99.5% | 104% | activity at 10 µM (ACHN): 98.9%; activity at 10 µM (SF-295): 98.8%; activity at 10 µM (RXF 393; [1]): 95.9%; Growth percentage (MDA-MB231/ATCC): 101.1%; activity at 10 µM (786−0): 88.3%; activity at 10 µM (COLO 205): 119%; activity at 10 µM (HCT-116): 51.2%; activity at 10 µM (SF-268): 111%; activity at 10 µM (OVCAR-4): 102%; activity at 10 µM (MCF7): 70.6%
Cc1nc(SCC(=O)N2CCN(c3cc4c(cc3F)c(=O)c(C(=O)O)cn4C3CC3)CC2)sc1C(=O)/C=C/c1ccc(Br)cc1 [Compound 4f, (E)-7-(4-(2-((5-(3-(4-Bromophenyl)acryloyl)-4-methylthiazol-2-yl)thio)acetyl)piperazin-1-yl)-1-cyclopropyl-6-fluoro-4-oxo-1,4-dihydroquinoline-3-carboxylic Acid] | 116% | 105% | 109% | 113% | 107% | 107% | 108% | 101% | 115% | 102% | 96.2% | 99.6% | 115% | 56.5% | 31.5% | 107% | 108% | 118% | 101% | 106% | activity at 10 µM (ACHN): 107%; activity at 10 µM (SF-295): 108%; activity at 10 µM (RXF 393; RXF 393, read-out: Growth percentage): 107%; Growth percentage (MDA-MB231/ATCC): 98.6%; activity at 10 µM (786−0): 93.6%; activity at 10 µM (COLO 205): 112%; activity at 10 µM (HCT-116): 94.3%; activity at 10 µM (SF-268): 116%; activity at 10 µM (OVCAR-4): 102%; activity at 10 µM (MCF7): 70.8%
Cc1nc(SCC(=O)N2CCN(c3cc4c(cc3F)c(=O)c(C(=O)O)cn4C3CC3)CC2)sc1C(=O)/C=C/c1cccc([N+](=O)[O-])c1 [Compound 4g, (E)-1-Cyclopropyl-6-fluoro-7-(4-(2-((4-methyl-5-(3-(3-nitrophenyl)acryloyl)thiazol-2-yl)thio)acetyl)piperazin-1-yl)-4-oxo-1,4-dihydroquinoline-3-carboxylic Acid] | 69.8% | 68.9% | 92.8% | 108% | 111% | 102% | 21.7% | 92.6% | 68.4% | 87.8% | 29.3% | 99.1% | 50.3% | 11.6% | 9.9% | 106% | 109% | 99.8% | 65.4% | 74.5% | activity at 10 µM (ACHN): 110%; activity at 10 µM (SF-295): 110%; activity at 10 µM (RXF 393; [1]): 92.9%; Growth percentage (MDA-MB231/ATCC): 92.4%; activity at 10 µM (786−0): 71.2%; activity at 10 µM (COLO 205): 90.5%; activity at 10 µM (HCT-116): -73.5%; activity at 10 µM (SF-268): 172%; activity at 10 µM (OVCAR-4): 103%; activity at 10 µM (MCF7): 11.6%
